Experiments:
mPTP [1] = assay: mPTP activity (Ca2+ retention) assay in isolated rat liver mitochondria; assay type: biochemical; settings: for mPTP Rat liver pIC50: examples tested by different contract research organisations, believed comparable
In short: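 pIC50 was taken from Fluo5N fluorescence at 10 min after a 75 μM CaCl2 bolus, scaled between DMSO (0%) and 5 μM cyclosporin A (100%). Compounds, ten half-log concentrations from 30 μM to 1 nM final, sat 10 min at RT with fresh female Sprague Dawley rat liver mitochondria energized by succinate plus rotenone.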

mPTP [2] = assay: mPTP activity assay in isolated rat brain mitochondria; assay type: biochemical; settings: fluorescence at 10 min timepoint
In short: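 Fresh brain mitochondria from female Sprague Dawley rats, digitonin-washed, in pH 7.4 mannitol/MOPS/KCl buffer with pyruvate, malate, ADP, oligomycin A and 2 μM Fluo5N. Preincubated with compounds 10 min at RT. Fluo5N fluorescence then read every 3 sec for 10 min on FLIPR Tetra.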

mPTP [3] = assay: Human platelet mitochondria assay (annexin V / PS exposure by flow cytometry); assay type: cell-based; settings: human blood platelets stimulated with thrombin/convulxin/calcium; % AnV-APC positive platelets
Description: The mPTP cell based assay was performed using a transformative functional cell-(human blood platelets)-based assay by flow cytometry. Procoagulant platelets expose phosphatidylserine (PS), allowing a burst of thrombin generation that is responsible for producing an occlusive thrombus. While an increase in cytosolic Ca^2+ concentration is required for deriving platelets to become activated, a higher and more sustained increases in cytosolic Ca^2+ concentration is needed to commit some platelets to becoming procoagulant. Simulation of platelets results in the rapid influx of Ca^2+ across the platelet membrane. The Ca^2+ is then sequestered by mitochondria until the threshold for mPTP opening is reached, at which point the pore opens and the mitochondrial membrane potential is dissipated. mPTP opening and subsequent disruption in mitochondrial membrane potential leads to release of a high concentration of calcium stored in mitochondria into the platelet's cytosol (“supramaximal calcium signal” [1]) which is known to be a requisite initiating signal transduction leading to externalisation of procoagulant PS to the outer leaflet of platelets' plasma membrane. PS externalisation of stimulated platelets can be quantified in live platelets using standard annexin V (AnV) labelling by flow cytometry, enabling pharmacological characterisation of mPTP inhibitors.
Fresh human blood (9 ml) was collected from consenting donors into 3.2% sodium citrate. Acid citrate dextrose (85 mM tri-sodium citrate, 71 mM citric acid, and 111 mM D-glucose) was added (1:7 vol/vol) and platelet-rich plasma was separated by centrifugation (200 g, 10 minutes, ambient temperature, and without any brake). Platelets were pelleted by centrifugation (600 g, 10 minutes, ambient temperature) in the presence of prostaglandin E1 (100 nM) and apyrase (0.02 U/mL). Pelleted platelets were resuspended in N-2-hydroxyethylpiperazine-N′-2-ethanesulfonic acid (HEPES)-buffered saline supplemented with D-glucose (135 mM NaCl, 10 mM HEPES, 3 mM KCl, 1 mM MgCl2, 0.34 mM NaH2PO4, 5 mM D-glucose, 0.1% bovine serum albumin, pH 7.4.) and apyrase (0.02 U/mL). Platelets were rested for 30 minutes at 30° C. before treatment protocols were initiated.
Test compounds were prepared from 10 mM stocks in DMSO. Serial dilution of search test compounds stamped in duplicate into a 96 well plate using Multidrop Pico 8 Digital Dispenser. Platelets were loaded and incubated for 30 min at room temperature. Then a stimulation mix containing Thrombin (FAC: 0.5 U/ml)/Convulxin (FAC: 0.05 μg/ml)/Calcium (FAC: 2 mM) added per well except control/not stimulated wells (This is low signal control). Some wells received no treatment but DMSO vehicle control and used as high signal controls (FAC of DMSO set at 0.1% in all wells of the 96 well plate). The reaction mix incubated for 10 min at room temperature. During last 2 min of stimulation AnV-APC was added to detect surface PS exposure. Samples ten fixed and fluorescence was detected by MACSQuant X flow cytometry and 10 000 platelet events were collected. The percentage of AnV-APC positive platelets was calculated for each well. IC50 for each compound was then calculated using a standard four parameter curve fit model (GraphPad Prism).

| SMILES | mPTP Rat liver pIC50 (mPTP [1]) | mPTP Rat brain pIC50 (mPTP [2]) | pIC50 (mPTP [3]) | mPTP pIC50 rat liver mitochondria (mPTP [1]; Fluo5N fluorescence at 10 min after 75 μM CaCl2) |
| --- | --- | --- | --- | --- |
| CC(CNC(=O)c1nccc(=O)[nH]1)(Cc1ccc(F)cc1F)C1CC1 (single isomer, unassigned) [Example 244, N-(2-cyclopropyl-3-(2,4-difluorophenyl)-2-methylpropyl)-6-oxo-1,6-dihydropyrimidine-2-carboxamide] | 6.73 | 7.53 | 7.14 | – |
| O=C(NCC1(Cc2ccc(F)cc2F)CC(F)C1)c1nccc(=O)[nH]1 (single isomer, unassigned) [Example 247] | 6.27 | 7.26 | 6.52 | – |
| Cn1nc(C(=O)NC[C@H](Cc2ccc(F)cc2)C2CC2)[nH]c1=O [Example 190] | 7.31 | 7.75 | 7.23 | highest activity |
| O=C(NC[C@@H](Cc1ccc(F)cc1)C1CC1)c1nccc(=O)[nH]1 [Example 249] | – | – | 6.52 | – |
| C[C@](CNC(=O)c1ncc(Cl)c(=O)[nH]1)(Cc1ccc(F)cc1F)C1CC1 [Example 260, 5-chloro-N-[(2S)-2-cyclopropyl-3-(2,4-difluorophenyl)-2-methylpropyl]-4-oxo-3H-pyrimidine-2-carboxamide] | 5.78 | 7.50 | – | – |
| CC(CNC(=O)c1ncc(F)c(=O)[nH]1)(Cc1ccc(F)cc1F)C1CC1 (single isomer, unassigned) [Example 258, N-[2-cyclopropyl-3-(2,4-difluorophenyl)-2-methylpropyl]-5-fluoro-4-oxo-3H-pyrimidine-2-carboxamide] | 6.39 | 7.71 | – | – |
| O=C(NCC1(Cc2c(F)cccc2F)CCC1)c1cncc(=O)[nH]1 [Example 15, N-((1-(2,6-difluorobenzyl)cyclobutyl)methyl)-6-oxo-1,6-dihydropyrazine-2-carboxamide] | 5.92 | 7.65 | – | – |
| CC(CNC(=O)c1ncc(F)c(=O)[nH]1)(Cc1ccc(F)cc1)C1CC1 (single isomer, unassigned) [Example 262, N-[2-cyclopropyl-3-(4-fluorophenyl)-2-methylpropyl]-5-fluoro-4-oxo-3H-pyrimidine-2-carboxamide] | 6.00 | 7.45 | – | – |
| O=C(NCC1(Cc2ccc(F)cc2F)CCC1)c1c[nH]c(=O)cn1 [Example 132] | 6.08 | 7.31 | – | – |
| CC(CNC(=O)c1noc(=O)[nH]1)(Cc1ccc(F)cc1)C1CC1 (single isomer, unassigned) [Example 276, N-(2-cyclopropyl-3-(4-fluorophenyl)-2-methylpropyl)-5-oxo-4,5-dihydro-1,2,4-oxadiazole-3-carboxamide] | 5.82 | 7.27 | – | – |
| CC(CNC(=O)c1cc(O)no1)(Cc1ccc(F)cc1)C1CC1 (single isomer, unassigned) [Example 272] | 4.52 | 6.35 | – | – |
| CC[C@H](CNC(=O)c1nn(C)c(=O)[nH]1)Cc1ccc(F)cc1F [Example 98, (S)—N-(2-(2,4-Difluorobenzyl)butyl)-1-methyl-5-oxo-4,5-dihydro-1H-1,2,4-triazole-3-carboxamide] | 6.59 | 7.78 | – | – |
| Cn1nc(C(=O)NCC2(Cc3cccc(Cl)c3)CCC2)[nH]c1=O [Example 79, N-((1-(3-Chlorobenzyl)cyclobutyl)methyl)-1-methyl-5-oxo-4,5-dihydro-1H-1,2,4-triazole-3-carboxamide] | 6.39 | 7.59 | – | – |
| Cn1nc(C(=O)NCC2(Cc3ccc(F)cc3F)CCCO2)[nH]c1=O (single isomer, unassigned) [Example 229] | 6.32 | 6.83 | – | – |
| Cn1nc(C(=O)N2CCC(C)(c3ccccc3)C2)[nH]c1=O (stereo not shown) [Reference Example 101, 2-methyl-5-(3-methyl-3-phenylpyrrolidine-1-carbonyl)-2,4-dihydro-3H-1,2,4-triazol-3-one] | <4.57 | <4.52 | – | – |
| CSc1ccccc1CC1(CNC(=O)c2nn(C)c(=O)[nH]2)CCC1 [Example 181] | 5.66 | 6.91 | – | – |
| CCC(F)(CNC(=O)c1nccc(=O)[nH]1)Cc1ccc(F)cc1F (single isomer, unassigned) [Example 256, N-(2-(2,4-difluorobenzyl)-2-fluorobutyl)-6-oxo-1,6-dihydropyrimidine-2-carboxamide] | 5.09 | 6.13 | – | – |
| COC(CNC(=O)c1nn(C)c(=O)[nH]1)Cc1ccccc1 (stereo not shown) [Example 43, N-(2-methoxy-3-phenylpropyl)-1-methyl-5-oxo-4,5-dihydro-1H-1,2,4-triazole-3-carboxamide] | 5.03 | 6.81 | – | – |
| O=C(NCC1(Cc2ccccc2F)CCC1)c1cncc(O)n1 [Example 13, N-((1-(2-fluorobenzyl)cyclobutyl)methyl)-6-hydroxypyrazine-2-carboxamide] | 5.33 | 7.74 | – | – |
| Cn1nc(C(=O)NCC(C)(Cc2ccc(F)cc2F)C2CC2)[nH]c1=O (single isomer, unassigned) [Example 240, N-(2-cyclopropyl-3-(2,4-difluorophenyl)-2-methylpropyl)-1-methyl-5-oxo-4,5-dihydro-1H-1,2,4-triazole-3-carboxamide] | 6.91 | 7.61 | – | – |
| O=C(NCC1(Cc2ccc(F)cc2F)CCC1)c1nccc(=O)[nH]1 [Example 160] | 6.28 | 7.7 | – | – |
| CC(CNC(=O)c1ncc(Cl)c(=O)[nH]1)(Cc1ccc(F)cc1)C1CC1 (single isomer, unassigned) [Example 263, 5-Chloro-N-[2-cyclopropyl-3-(4-fluorophenyl)-2-methylpropyl]-4-oxo-3H-pyrimidine-2-carboxamide] | 6.54 | 8.09 | – | – |
| Cn1nc(C(=O)NC[C@@H](Cc2ccc(F)cc2F)CC(F)(F)F)[nH]c1=O [Example 246] | 4.56 | 5.85 | – | – |
| Cn1nc(C(=O)NCC(Cc2cccc(F)c2)C2CC2)[nH]c1=O (stereo not shown) [Example 78, N-(2-Cyclopropyl-3-(3-fluorophenyl)propyl)-1-methyl-5-oxo-4,5-dihydro-1H-1,2,4-triazole-3-carboxamide] | 6.59 | 7.28 | – | – |
| Cc1ncc(C(=O)NCC2(Cc3ccccc3)CCC2)cc1O [Example 3, N-((1-benzylcyclobutyl)methyl)-5-hydroxy-6-methylnicotinamide] | 6.02 | 6.89 | – | – |
| CC(C)(CNC(=O)c1ccc2oc(=O)[nH]c2c1)Cc1ccccc1 [Example 57] | 5.43 | 6.25 | – | – |
| O=C(NCC1(Cc2ccc(F)cc2F)CC12CC2)c1nccc(=O)[nH]1 (single isomer, unassigned) [Example 236] | 6.11 | 7.18 | – | – |
| CC(CNC(=O)c1nn(C)c(=O)[nH]1)Cc1ccccc1 (stereo not shown) [Example 32, 1-methyl-N-(2-methyl-3-phenylpropyl)-5-oxo-4,5-dihydro-1H-1,2,4-triazole-3-carboxamide] | 5.76 | 6.79 | – | – |
| CC(C)(CNC(=O)c1cncc(O)n1)Cc1ccccc1 [Example 12, N-(2,2-dimethyl-3-phenylpropyl)-6-hydroxypyrazine-2-carboxamide] | 5.70 | 7.08 | – | – |

Reference: patent publication US12491185B2, “Inhibitors of mPTP” (NRG Therapeutics Ltd, priority 2023, dated 2025)
